{"source": "patent US20190133968A1", "about": "“Applications of benzophenones in preparation of drug” (SHANXI MEDICAL UNIVERSITY, priority 2016, published 2019)", "system": "DN rats", "experiment": "type II diabetic nephropathy (DN) rat model (high-sugar high-fat diet + streptozocin)", "assay_type": "in vivo, SD (Sprague Dawley) rats", "details": "for BUN / CREA / Glycated hemoglobin / Urinary protein / mALB (microalbumin in urine) / ICAM-1 / IL-1β / IL-6 / MDA / NF-κB / SOD / T-AOC / TGF-β1 / TNF-α / Glucose (GLU) / HDL-C / LDL-C / TC / TG / UA / Kidney coefficient / VCAM-1: gavage, 6 weeks; for Urinary protein / mALB (microalbumin in urine): 6-hour urine; for ICAM-1 / IL-1β / IL-6 / MDA / NF-κB / SOD / T-AOC / TGF-β1 / TNF-α / VCAM-1: renal tissues; for Glucose (GLU) / HDL-C / LDL-C / TC / TG / UA: serum; for Kidney coefficient: weights of two kidneys/body weight", "method": "The solid dispersions are prepared through a solvent method, comprising steps of: respectively precisely weighing LM49, PVPK30 and tween80 with a weight ratio of 1:5:1, and A8, PVPK30 and tween80 with a weight ratio of 1:4:1; dissolving with appropriate absolute ethyl alcohol, continuously stirring, and uniformly mixing; placing on the water bath at 60° C., evaporating and removing the absolute ethyl alcohol, and obtaining a viscous material; placing in the freezer at −20° C., and freezing for 2 hours; taking out from the freezer, then placing in the vacuum drying oven, and drying for 24 hours; after becoming embrittlement, smashing and sieving with a sieve of 80 meshes, and then placing in the dryer for storage.\nThe healthy adult male SD rats (having a weight of 180-220 g) are fed with the high-sugar and high-fat diet for 4 weeks; the rats are fasting overnight; and streptozocin (STZ) of 40 mg/kg is intraperitoneally injected into the rats. The rats of normal control group are injected with the sodium citrate buffer of same volume; 72 hours later, the rats are fasting for 12 hours. […] During the administration period, the successfully established model rats are still fed with the high-sugar and high-fat diet, while the rats of the normal control group are fed with the normal diet.\nAfter administration for 6 weeks, 6-hour urine of the rats is collected with the metabolism cage.\nThe rats are fasting overnight and anesthetized intraperitoneally, then the abdominal aorta blood thereof is drawn for measuring the related indexes. The two kidneys of each rat are washed with the normal saline; weights of the kidneys are recorded; and the kidney coefficient (weights of two kidneys/body weight) is calculated. The renal tissues (comprising the glomerulus and renal tubules) at the same part of the left kidney are cut lengthwise and immersed in the 10% neutral formalin for pathomorphology analysis, and the other parts of the left kidney are used for biochemical index measurement; the right kidney is used for mechanism research and stored in the freezer at −80° C.\nAfter successfully establishing the model rats, expect the normal control group (ten rats), the remaining rats are randomly divided into eight groups, wherein each group has twelve rats. The eight groups are respectively the model group, the LM49 solid dispersion low-dose group (with the drug concentration of 3 mg/kg), the LM49 solid dispersion medium-dose group (with the drug concentration of 9 mg/kg), the LM49 solid dispersion high-dose group (with the drug concentration of 27 mg/kg), the A8 solid dispersion low-dose group (with the drug concentration of 3 mg/kg), the A8 solid dispersion medium-dose group (with the drug concentration of 9 mg/kg), the A8 solid dispersion high-dose group (with the drug concentration of 27 mg/kg), and the captopril control group (with the drug concentration of 15 mg/kg).\nAdministration Way: By Gavage.\nThe rats of the normal control group and the model group are administrated with the normal saline of 1.0 ml/100 g; the rats of the positive control group, the LM49 solid dispersion high-dose, medium-dose and low-dose groups and the A8 solid dispersion high-dose, medium-dose and low-dose groups are respectively administrated with the drugs of different concentrations, and the administration volume is 1.0 ml/100 g.\nThe solid dispersions are dissolved by the normal saline; and the rats of the positive control group are administrated with the 0.5% CMC-Na (sodium carboxymethyl cellulose) suspension.\nThe rats are administrated seven days a week, for totally six weeks.\nThe IBM SPSS Statistics 20 software is used for data processing, and the data is represented in x±s. The one-way analysis of variance (ANOVA) is adopted for comparison among the groups. According to the homogeneity test results of variance, if the variance is equal, the LSD (least significant difference) test is adopted; if the variance is unequal, the Dunnett's T3 test is adopted. […]"}
{"smiles": "O=C(c1cc(OC(=O)N2CCOCC2)c(OC(=O)N2CCOCC2)cc1Cl)c1cc(Cl)ccc1OC(=O)N1CCOCC1", "note": "[A8, 4,5,2′-tris(4-morpholinemethanoyl)-2,5′-dichlorobenzophenone]", "values": [{"measurement": "BUN", "setting": "DN rats, high-dose 27 mg/kg", "result": "10.05 ± 1.61", "unit": "mmol/L"}, {"measurement": "CREA", "setting": "DN rats, high-dose 27 mg/kg", "result": "52.06 ± 1.66", "unit": "µmol/L"}, {"measurement": "Glycated hemoglobin", "setting": "DN rats, high-dose 27 mg/kg", "result": "6.44 ± 0.53^□□● %"}, {"measurement": "Urinary protein", "setting": "DN rats, high-dose 27 mg/kg", "result": "1.42 ± 0.71^□□●●▴ mg/6 h"}, {"measurement": "mALB (microalbumin in urine)", "setting": "DN rats, high-dose 27 mg/kg", "result": "39.00 ± 7.58^□□●●▴▴ μg/6 h"}, {"measurement": "ICAM-1", "setting": "DN rats, high-dose 27 mg/kg", "result": "322.5 ± 85.70", "unit": "pg/mgprog"}, {"measurement": "IL-1β", "setting": "DN rats, high-dose 27 mg/kg", "result": "133.45 ± 24.68", "unit": "pg/mgprog"}, {"measurement": "IL-6", "setting": "DN rats, high-dose 27 mg/kg", "result": "71.29 ± 14.14^□□● pg/mgprog"}, {"measurement": "MDA", "setting": "DN rats, high-dose 27 mg/kg", "result": "1.42 ± 0.25", "unit": "nmol/mgprog"}, {"measurement": "NF-κB", "setting": "DN rats, high-dose 27 mg/kg", "result": "298.32 ± 58.92^□□▴▴◯◯ pg/mgprog"}, {"measurement": "SOD", "setting": "DN rats, high-dose 27 mg/kg", "result": "4.37 ± 1.25", "unit": "U/mgprog"}, {"measurement": "T-AOC", "setting": "DN rats, high-dose 27 mg/kg", "result": "1.32 ± 0.17", "unit": "U/mgprog"}, {"measurement": "TGF-β1", "setting": "DN rats, high-dose 27 mg/kg", "result": "21.36 ± 4.64^□□●●▴▴ pg/mgprot"}, {"measurement": "TNF-α", "setting": "DN rats, high-dose 27 mg/kg", "result": "304.51 ± 73.47^□ pg/mgprog"}, {"measurement": "Glucose (GLU)", "setting": "DN rats, high-dose 27 mg/kg", "result": "9.75 ± 2.11^□□●●▴◯ mmol/L"}, {"measurement": "HDL-C", "setting": "DN rats, high-dose 27 mg/kg", "result": "1.20 ± 0.27", "unit": "mmol/L"}, {"measurement": "LDL-C", "setting": "DN rats, high-dose 27 mg/kg", "result": "1.01 ± 0.20^□□●▴ mmol/L"}, {"measurement": "TC", "setting": "DN rats, high-dose 27 mg/kg", "result": "1.42 ± 0.19^□□●●▴◯ mmol/L"}, {"measurement": "TG", "setting": "DN rats, high-dose 27 mg/kg", "result": "0.30 ± 0.08^□□ mmol/L"}, {"measurement": "UA", "setting": "DN rats, high-dose 27 mg/kg", "result": "26.44 ± 5.85^□□●● μmol/L"}, {"measurement": "Kidney coefficient", "setting": "DN rats, high-dose 27 mg/kg", "result": "0.86 ± 0.05^□ %"}, {"measurement": "lesions of the renal tissues", "setting": "DN rats, kidney pathology (HE, Masson staining)", "result": "effectively reduce the lesions of the renal tissues"}, {"measurement": "BUN", "setting": "DN rats, low-dose 3 mg/kg", "result": "10.56 ± 1.74", "unit": "mmol/L"}, {"measurement": "CREA", "setting": "DN rats, low-dose 3 mg/kg", "result": "54.16 ± 2.95", "unit": "µmol/L"}, {"measurement": "Glycated hemoglobin", "setting": "DN rats, low-dose 3 mg/kg", "result": "8.64 ± 0.45", "unit": "%"}, {"measurement": "Urinary protein", "setting": "DN rats, low-dose 3 mg/kg", "result": "3.64 ± 0.65^□□ mg/6 h"}, {"measurement": "mALB (microalbumin in urine)", "setting": "DN rats, low-dose 3 mg/kg", "result": "88.91 ± 10.33^□□ μg/6 h"}, {"measurement": "ICAM-1", "setting": "DN rats, low-dose 3 mg/kg", "result": "339.84 ± 92.15", "unit": "pg/mgprog"}, {"measurement": "IL-1β", "setting": "DN rats, low-dose 3 mg/kg", "result": "178.45 ± 31.59", "unit": "pg/mgprog"}, {"measurement": "IL-6", "setting": "DN rats, low-dose 3 mg/kg", "result": "139.85 ± 55.41^□ pg/mgprog"}, {"measurement": "MDA", "setting": "DN rats, low-dose 3 mg/kg", "result": "1.52 ± 0.38", "unit": "nmol/mgprog"}, {"measurement": "NF-κB", "setting": "DN rats, low-dose 3 mg/kg", "result": "1601.45 ± 206.73^□●● ^ pg/mgprog"}, {"measurement": "SOD", "setting": "DN rats, low-dose 3 mg/kg", "result": "5.57 ± 1.75", "unit": "U/mgprog"}, {"measurement": "T-AOC", "setting": "DN rats, low-dose 3 mg/kg", "result": "1.39 ± 0.19", "unit": "U/mgprog"}, {"measurement": "TGF-β1", "setting": "DN rats, low-dose 3 mg/kg", "result": "59.35 ± 7.34^□□ pg/mgprot"}, {"measurement": "TNF-α", "setting": "DN rats, low-dose 3 mg/kg", "result": "485.60 ± 138.80", "unit": "pg/mgprog"}, {"measurement": "VCAM-1", "setting": "DN rats, low-dose 3 mg/kg", "result": "37.85 ± 9.28", "unit": "pg/mgprog"}, {"measurement": "Glucose (GLU)", "setting": "DN rats, low-dose 3 mg/kg", "result": "13.11 ± 3.95^□□ mmol/L"}, {"measurement": "HDL-C", "setting": "DN rats, low-dose 3 mg/kg", "result": "1.21 ± 0.28", "unit": "mmol/L"}, {"measurement": "LDL-C", "setting": "DN rats, low-dose 3 mg/kg", "result": "1.77 ± 0.57^□□ mmol/L"}, {"measurement": "TC", "setting": "DN rats, low-dose 3 mg/kg", "result": "2.87 ± 0.69^□□ mmol/L"}, {"measurement": "TG", "setting": "DN rats, low-dose 3 mg/kg", "result": "0.39 ± 0.05^□□ mmol/L"}, {"measurement": "UA", "setting": "DN rats, low-dose 3 mg/kg", "result": "28.22 ± 7.14^□□●● μmol/L"}, {"measurement": "Kidney coefficient", "setting": "DN rats, low-dose 3 mg/kg", "result": "1.06 ± 0.05", "unit": "%"}, {"measurement": "BUN", "setting": "DN rats, medium-dose 9 mg/kg", "result": "10.07 ± 2.85", "unit": "mmol/L"}, {"measurement": "CREA", "setting": "DN rats, medium-dose 9 mg/kg", "result": "53.06 ± 3.75", "unit": "µmol/L"}, {"measurement": "Glycated hemoglobin", "setting": "DN rats, medium-dose 9 mg/kg", "result": "7.33 ± 0.77^□ %"}, {"measurement": "Urinary protein", "setting": "DN rats, medium-dose 9 mg/kg", "result": "2.80 ± 1.02^□□●● mg/6 h"}, {"measurement": "mALB (microalbumin in urine)", "setting": "DN rats, medium-dose 9 mg/kg", "result": "51.76 ± 9.44^□□●▴ μg/6 h"}, {"measurement": "ICAM-1", "setting": "DN rats, medium-dose 9 mg/kg", "result": "321.63 ± 82.35", "unit": "pg/mgprog"}, {"measurement": "IL-1β", "setting": "DN rats, medium-dose 9 mg/kg", "result": "155.22 ± 19.45", "unit": "pg/mgprog"}, {"measurement": "IL-6", "setting": "DN rats, medium-dose 9 mg/kg", "result": "111.69 ± 35.86^□ pg/mgprog"}, {"measurement": "MDA", "setting": "DN rats, medium-dose 9 mg/kg", "result": "1.48 ± 0.16", "unit": "nmol/mgprog"}, {"measurement": "NF-κB", "setting": "DN rats, medium-dose 9 mg/kg", "result": "786.93 ± 79.73^□□▴▴● pg/mgprog"}, {"measurement": "SOD", "setting": "DN rats, medium-dose 9 mg/kg", "result": "5.12 ± 1.41", "unit": "U/mgprog"}, {"measurement": "T-AOC", "setting": "DN rats, medium-dose 9 mg/kg", "result": "1.37 ± 0.31", "unit": "U/mgprog"}, {"measurement": "TGF-β1", "setting": "DN rats, medium-dose 9 mg/kg", "result": "27.91 ± 5.90^□□▴▴ pg/mgprot"}, {"measurement": "TNF-α", "setting": "DN rats, medium-dose 9 mg/kg", "result": "321.27 ± 86.34^□ pg/mgprog"}, {"measurement": "VCAM-1", "setting": "DN rats, medium-dose 9 mg/kg", "result": "31.09 ± 5.42", "unit": "pg/mgprog"}, {"measurement": "Glucose (GLU)", "setting": "DN rats, medium-dose 9 mg/kg", "result": "11.86 ± 2.96^□□▴ mmol/L"}, {"measurement": "HDL-C", "setting": "DN rats, medium-dose 9 mg/kg", "result": "1.23 ± 0.40", "unit": "mmol/L"}, {"measurement": "LDL-C", "setting": "DN rats, medium-dose 9 mg/kg", "result": "1.41 ± 0.33^□□ mmol/L"}, {"measurement": "TC", "setting": "DN rats, medium-dose 9 mg/kg", "result": "2.33 ± 0.58^□□ mmol/L"}, {"measurement": "TG", "setting": "DN rats, medium-dose 9 mg/kg", "result": "0.30 ± 0.07^□□ mmol/L"}, {"measurement": "UA", "setting": "DN rats, medium-dose 9 mg/kg", "result": "27.18 ± 5.37^□□●● μmol/L"}, {"measurement": "Kidney coefficient", "setting": "DN rats, medium-dose 9 mg/kg", "result": "1.00 ± 0.11", "unit": "%"}, {"measurement": "effect on resisting the DN of rats", "setting": "overall summary in words", "result": "stronger effect in resisting the DN of rats"}, {"measurement": "activity in resisting the type II diabetic nephropathy, A8 compared with LM49", "setting": "rat, in vivo", "result": "higher activity in resisting the type II diabetic nephropathy than the compound LM49"}]}
